Test results: patent US20240368096A1 (Enanta Pharmaceuticals, Inc., priority 2022, published 2024)

Tested on: HBV
Assay: HBV infection in HepG2-NTCP cells (HBeAg AlphaLISA in supernatants)
Format: cell-based
Conditions: Hepatitis B virus, 192 h; HBV infection of HepG2-NTCP cells; HBeAg in supernatants at day 8 post infection; read-out: Cellular EC50
Procedure, shortened: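 Readout was day-8 supernatant HBeAg by AlphaLISA, with EC50 set against DMSO controls and binned A<0.1 μM, B 0.1-1 μM, C>1 μM. Compounds were added 2 h before HBV (2000 GE/cell, 4% PEG, 0.5% DMSO) to HepG2-NTCP A3 cells; from day 1 medium held 2.5% DMSO.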

Row | SMILES | EC50 [nM]
1 | CCOC(=O)Nc1cc(-c2cc3c(cc2F)N(c2ccccc2)C[C@@H](C2CCCCC2)N(C)S3(=O)=O)sc1C(=O)O [Example 265, (R)-5-(3-cyclohexyl-7-fluoro-2-methyl-1,1-dioxido-5-phenyl-2,3,4,5-tetrahydrobenzo[f][1,2,5]thiadiazepin-8-yl)-3-((ethoxycarbonyl)amino)thiophene-2-carboxylic acid] | < 100
2 | CC(C)COC(=O)Nc1cc(-c2cc3c(cc2F)N(c2ccccc2)C[C@@H](C2CCCCC2)N(C)S3(=O)=O)sc1C(=O)O [Example 266] | < 100
3 | CN1[C@H](C2CCCCC2)CN(c2ccccc2)c2cc(Cl)c(-c3ccc(NS(=O)(=O)CCC(F)(F)F)c(C(=O)O)c3)cc2S1(=O)=O [Example 268] | < 100
4 | CN1[C@H](C2CCCCC2)CN(c2ccccc2)c2cc(Cl)c(-c3ccc(NS(=O)(=O)Cc4ccccc4)c(C(=O)O)c3)cc2S1(=O)=O [Example 269] | < 100
5 | CN1[C@H](C2CCCCC2)CN(c2ccccc2)c2cc(Cl)c(-c3ccc(NS(=O)(=O)CCc4ccccc4)c(C(=O)O)c3)cc2S1(=O)=O [Example 270] | < 100
6 | CN1[C@H](C2CCCCC2)CN(c2ccccc2)c2cc(Cl)c(-c3ccc(NS(=O)(=O)CC4CCC4)c(C(=O)O)c3)cc2S1(=O)=O [Example 272] | < 100
7 | CN1[C@H](C2CCCCC2)CN(c2cncc(F)c2)c2cc(Cl)c(-c3ccc(F)c(C(=O)O)c3)cc2S1(=O)=O [Example 280, (R)-5-(7-chloro-3-cyclohexyl-5-(5-fluoropyridin-3-yl)-2-methyl-1,1-dioxido-2,3,4,5-tetrahydrobenzo[f][1,2,5]thiadiazepin-8-yl)-2-fluorobenzoic acid] | 100 to 1000
8 | CN1[C@H](C2CCCCC2)CN(c2cncc(C(F)(F)F)c2)c2cc(Cl)c(-c3ccc(F)c(C(=O)O)c3)cc2S1(=O)=O [Example 282] | 100 to 1000
9 | CN1[C@H](C2CCCCC2)CN(c2ccnc(F)c2)c2cc(Cl)c(-c3ccc(F)c(C(=O)O)c3)cc2S1(=O)=O [Example 284] | < 100
10 | CN1[C@H](C2CCCCC2)CN(c2cnc(C(F)(F)F)nc2)c2cc(Cl)c(-c3ccc(F)c(C(=O)O)c3)cc2S1(=O)=O [Example 288] | 100 to 1000
11 | CN1[C@H](C2CCCCC2)CN(c2ccc(C#N)cc2)c2cc(Cl)c(-c3ccc(F)c(C(=O)O)c3)cc2S1(=O)=O [Example 290] | 100 to 1000
12 | CN1[C@H](C2CCCCC2)CN(c2ccc(OC(F)(F)F)cc2)c2cc(Cl)c(-c3ccc(F)c(C(=O)O)c3)cc2S1(=O)=O [Example 292] | < 100
13 | CN1[C@H](C2CCCCC2)CN(c2cccc(OC(F)(F)F)c2)c2cc(Cl)c(-c3ccc(F)c(C(=O)O)c3)cc2S1(=O)=O [Example 293] | < 100
14 | CN1[C@H](C2CCCCC2)CN(c2ccc(F)cc2)c2cc(Cl)c(-c3ccc(F)c(C(=O)O)c3)cc2S1(=O)=O [Example 294] | 100 to 1000
15 | CN1[C@H](C2CCCCC2)CN(c2cc(F)cc(F)c2)c2cc(Cl)c(-c3ccc(F)c(C(=O)O)c3)cc2S1(=O)=O [Example 297] | < 100
16 | CN1[C@H](C2CCCCC2)CN(c2cc(F)c(F)c(F)c2)c2cc(Cl)c(-c3ccc(F)c(C(=O)O)c3)cc2S1(=O)=O [Example 298] | 100 to 1000
17 | CN1[C@H](C2CCCCC2)CN(c2cc(F)cc(F)c2F)c2cc(Cl)c(-c3ccc(F)c(C(=O)O)c3)cc2S1(=O)=O [Example 299] | 100 to 1000
18 | CN1[C@H](C2CCCCC2)CN(c2ccc(C(F)(F)F)cc2)c2cc(Cl)c(-c3ccc(F)c(C(=O)O)c3)cc2S1(=O)=O [Example 300] | < 100
19 | CN1[C@H](C2CCCCC2)CN(c2ccc(C(F)(F)F)cc2F)c2cc(Cl)c(-c3ccc(F)c(C(=O)O)c3)cc2S1(=O)=O [Example 302] | 100 to 1000
20 | CN1[C@H](C2CCCCC2)CN(c2ccc(C(F)F)cc2)c2cc(Cl)c(-c3ccc(F)c(C(=O)O)c3)cc2S1(=O)=O [Example 303] | 100 to 1000
21 | COc1ccc(N2C[C@@H](C3CCCCC3)N(C)S(=O)(=O)c3cc(-c4ccc(F)c(C(=O)O)c4)c(Cl)cc32)cc1 [Example 306, (R)-5-(7-chloro-3-cyclohexyl-5-(4-methoxyphenyl)-2-methyl-1,1-dioxido-2,3,4,5-tetrahydrobenzo[f][1,2,5]thiadiazepin-8-yl)-2-fluorobenzoic acid] | 100 to 1000
22 | CCOc1ccc(N2C[C@@H](C3CCCCC3)N(C)S(=O)(=O)c3cc(-c4ccc(F)c(C(=O)O)c4)c(Cl)cc32)cc1 [Example 309] | 100 to 1000
23 | CCCCOc1cccc(N2C[C@@H](C3CCCCC3)N(C)S(=O)(=O)c3cc(-c4ccc(F)c(C(=O)O)c4)c(Cl)cc32)c1 [Example 310] | < 100
24 | CCCCOc1ccc(N2C[C@@H](C3CCCCC3)N(C)S(=O)(=O)c3cc(-c4ccc(F)c(C(=O)O)c4)c(Cl)cc32)cc1 [Example 311] | 100 to 1000
25 | CN1[C@H](C2CCCCC2)CN(c2cccc(OCC(F)(F)F)c2)c2cc(Cl)c(-c3ccc(F)c(C(=O)O)c3)cc2S1(=O)=O [Example 313] | < 100
26 | CN1[C@H](C2CCCCC2)CN(c2ccc3c(c2)OC(F)(F)O3)c2cc(Cl)c(-c3ccc(F)c(C(=O)O)c3)cc2S1(=O)=O [Example 314] | < 100

Next, values leading:

Row | EC50 [nM] | SMILES
27 | < 100 | CC(C)CS(=O)(=O)Nc1ccc(-c2cc3c(cc2Cl)N(c2ccccc2)C[C@@H](C2CCCCC2)N(C)S3(=O)=O)cc1C(=O)O [Example 267, (R)-5-(7-chloro-3-cyclohexyl-2-methyl-1,1-dioxido-5-phenyl-2,3,4,5-tetrahydrobenzo[f][1,2,5]thiadiazepin-8-yl)-2-((2-methylpropyl)sulfonamido)benzoic acid]
28 | < 100 | CC(C)CS(=O)(=O)Nc1cc(-c2cc3c(cc2Cl)N(c2ccccc2)C[C@@H](C2CCCCC2)N(C)S3(=O)=O)sc1C(=O)O [Example 276]
29 | < 100 | CC(C)COC(=O)Nc1c(F)cc(-c2cc3c(cc2Cl)N(c2ccccc2)C[C@@H](C2CCCCC2)N(C)S3(=O)=O)cc1C(=O)O [Example 277]
30 | < 100 | COc1cc(-c2cc3c(cc2Cl)N(c2ccccc2)C[C@@H](C2CCCCC2)N(C)S3(=O)=O)cc(C(=O)O)c1NC(=O)OCC(C)C [Example 278]
31 | < 100 | CC(C)COC(=O)Nc1c(Cl)cc(-c2cc3c(cc2Cl)N(c2ccccc2)C[C@@H](C2CCCCC2)N(C)S3(=O)=O)cc1C(=O)O [Example 279]
32 | < 100 | Cc1cncc(N2C[C@@H](C3CCCCC3)N(C)S(=O)(=O)c3cc(-c4ccc(F)c(C(=O)O)c4)c(Cl)cc32)c1 [Example 281]
33 | > 1000 | CN1[C@H](C2CCCCC2)CN(c2ccncc2)c2cc(Cl)c(-c3ccc(F)c(C(=O)O)c3)cc2S1(=O)=O [Example 283]
34 | > 1000 | Cc1cc(N2C[C@@H](C3CCCCC3)N(C)S(=O)(=O)c3cc(-c4ccc(F)c(C(=O)O)c4)c(Cl)cc32)ccn1 [Example 285]
35 | 100 to 1000 | CN1[C@H](C2CCCCC2)CN(c2cncnc2)c2cc(Cl)c(-c3ccc(F)c(C(=O)O)c3)cc2S1(=O)=O [Example 286]
36 | 100 to 1000 | Cc1ncc(N2C[C@@H](C3CCCCC3)N(C)S(=O)(=O)c3cc(-c4ccc(F)c(C(=O)O)c4)c(Cl)cc32)cn1 [Example 287]
37 | 100 to 1000 | CN1[C@H](C2CCCCC2)CN(c2cnccn2)c2cc(Cl)c(-c3ccc(F)c(C(=O)O)c3)cc2S1(=O)=O [Example 289]
38 | < 100 | CN1[C@H](C2CCCCC2)CN(c2cccc(C#N)c2)c2cc(Cl)c(-c3ccc(F)c(C(=O)O)c3)cc2S1(=O)=O [Example 291]
39 | 100 to 1000 | CN1[C@H](C2CCCCC2)CN(c2cccc(F)c2)c2cc(Cl)c(-c3ccc(F)c(C(=O)O)c3)cc2S1(=O)=O [Example 295]
40 | < 100 | CN1[C@H](C2CCCCC2)CN(c2cccc(Cl)c2)c2cc(Cl)c(-c3ccc(F)c(C(=O)O)c3)cc2S1(=O)=O [Example 296]
41 | 100 to 1000 | CN1[C@H](C2CCCCC2)CN(c2cccc(C(F)(F)F)c2)c2cc(Cl)c(-c3ccc(F)c(C(=O)O)c3)cc2S1(=O)=O [Example 301]
42 | 100 to 1000 | COc1cccc(N2C[C@@H](C3CCCCC3)N(C)S(=O)(=O)c3cc(-c4ccc(F)c(C(=O)O)c4)c(Cl)cc32)c1 [Example 305]
43 | < 100 | CCOc1cccc(N2C[C@@H](C3CCCCC3)N(C)S(=O)(=O)c3cc(-c4ccc(F)c(C(=O)O)c4)c(Cl)cc32)c1 [Example 308]
44 | < 100 | COCCOc1cccc(N2C[C@@H](C3CCCCC3)N(C)S(=O)(=O)c3cc(-c4ccc(F)c(C(=O)O)c4)c(Cl)cc32)c1 [Example 312]
45 | 100 to 1000 | CN1[C@H](C2CCCCC2)CN(CC2CC2)c2cc(Cl)c(-c3ccc(F)c(C(=O)O)c3)cc2S1(=O)=O [Example 319, (R)-5-(7-chloro-3-cyclohexyl-5-(cyclopropylmethyl)-2-methyl-1,1-dioxido-2,3,4,5-tetrahydrobenzo[f][1,2,5]thiadiazepin-8-yl)-2-fluorobenzoic acid]
46 | 100 to 1000 | CN1[C@H](C2CCCCC2)CN(C2CCC2)c2cc(Cl)c(-c3ccc(F)c(C(=O)O)c3)cc2S1(=O)=O [Example 322]
47 | 100 to 1000 | CCCCCCN1C[C@@H](C2CCCCC2)N(C)S(=O)(=O)c2cc(-c3ccc(F)c(C(=O)O)c3)c(Cl)cc21 [Example 324]
48 | 100 to 1000 | CC(C)CC1CN(C2CCCC2)c2cc(Cl)c(-c3cccc(C(=O)O)c3)cc2S(=O)(=O)N1C (centres unmarked) [Example 326, 3-(7-chloro-5-cyclopentyl-3-isobutyl-2-methyl-1,1-dioxido-2,3,4,5-tetrahydrobenzo[f][1,2,5]thiadiazepin-8-yl)benzoic acid]
49 | 100 to 1000 | CC(C)CC1CN(C2CC2)c2cc(Cl)c(-c3cccc(C(=O)O)c3)cc2S(=O)(=O)N1C (centres unmarked) [Example 327]
50 | 100 to 1000 | CC(C)CC1CN(C2CCC2)c2cc(Cl)c(-c3cccc(C(=O)O)c3)cc2S(=O)(=O)N1C (centres unmarked) [Example 328]
51 | 100 to 1000 | CC(C)CC1CN(c2cccc(F)c2)c2cc(Cl)c(-c3cccc(C(=O)O)c3)cc2S(=O)(=O)N1C (centres unmarked) [Example 329]
52 | 100 to 1000 | CC(C)CC1CN(c2ccccc2F)c2cc(Cl)c(-c3cccc(C(=O)O)c3)cc2S(=O)(=O)N1C (centres unmarked) [Example 330]
53 | 100 to 1000 | CC(C)CC1CN(c2ccc(F)cc2)c2cc(Cl)c(-c3cccc(C(=O)O)c3)cc2S(=O)(=O)N1C (centres unmarked) [Example 331]
